Experimental data taken from patent US7939091B2, “Biorational repellents obtained from terpenoids for use against arthropods” (Iowa State University Research Foundation, Inc., priority 1999, dated 2011).

Columns and labels:
Assay type in all cases: in vivo
[1] = system: yellow fever mosquitoes, Aedes aegypti; experiment: Static-air repellency chamber, spatial and contact repellency, adult female yellow fever mosquitoes; conditions: for long term repellency (in excess of two hours): Table 20, up to 360 min; for Average Percentage Repellency Over Time: application rate 78.6 μg/cm^2
Protocol: Test Equipment. In this testing, a static air repellency chamber was used. The apparatus consisted of a 9×60-cm section of glass tubing with a 2-cm hole drilled at the midpoint along the length for central introduction of the insects. All of the testing was conducted in an environmental chamber at ambient temperatures.
Test Methods. The data for spatial repellency was collected at 15 minutes after the introduction of female yellow fever mosquitoes into a static air repellency chamber. Data for the contact repellency was collected after three hours. The concentrations used in the tests are 1% solution (1 ml of it on a 9-cm diameter filter paper). One (1) ml of a 1% (wt/vol) solution of repellent substance containing hexane as a carrier was pipetted onto a 9-cm diameter filter paper results in a concentration of 157 μg/cm^2. The solution contained the desired mass of compound to be tested added to the desired volume of hexane, e.g., for a 1% solution of catnip essential oil, […] was added to 100 ml of hexane.
One milliliter of the solution was applied to one half of a 9-cm diameter round filter paper with an area of 63.6 cm^2 and then allowed to dry before testing. […] Treated filter papers were placed inside the lids of 9-cm glass petri dishes, and placed over the ends of the glass tube. The position of the treated side, to the right or to the left, was selected by using a random-number table. Approximately fifteen unmated adult female mosquitoes were anaesthetized with CO2 and then introduced to the 9×60-cm glass cylinder through the centered 2-cm hole. Timing began 2 minutes after mosquito introduction, and mosquito distribution inside the static-air choice-test apparatus was observed over a 15-minute period for each treatment to determine spatial repellency. Basically the number of mosquitoes in the non-treated half were considered to be repelled and were counted. Percent repellency was considered to be: (Number of Individuals on Untreated Half−Number of Individuals on Treated Half)/15)×100. Contact repellency was defined in this assay as 100% avoidance of the treated filter paper-after three hours. The experimental design was a completely randomized design using six replications of each treatment.
All test methods were the same as described in Example 7, except spatial repellency over a longer period.
Test Methods. […] Also only three replications were used instead of six.

[2] = system: northern house mosquito, Culex pipiens; experiment: Mosquito residual repellency bioassay (aged treated filter papers), static-air chamber
Text: Aged applications of catnip essential oil, elemol, DEET, and hexane (control) were compared in the static-air choice-test apparatus under the same conditions as described above. The 0.5% and 0.1% (wt/vol) solutions of each test solution were made to yield the same rate of active ingredient used in the above mosquito repellency bioassay. Individually treated filter papers were then placed in a fume hood and aged for 0, 30, 60, 120, or 180-minutes, allowing volatization to occur over a set period of time. After the specified ageing period, filter papers were placed on the inside of the 9-cm glass petri dish lids, and then placed over the ends of the glass tube. The position of the treated side was randomized. Approximately […] unmated adult female mosquitoes were anaesthetized with CO2 and then introduced to the 9×60-cm glass cylinder through the centered 2-cm hole. Timing began 2 minutes after mosquito introduction, and mosquito distribution (number of individuals on treated and untreated sides) inside the static-air choice-test apparatus was recorded after 15 minutes for determination of Percentage Repellency (calculations shown under Percentage and Contact Repellency Bioassay). Experimental design was completely randomized with three replications of each aged test solution. Analysis of variance was used to identify significant differences related to active ingredient, concentration, and ageing period. Regression analysis was used to examine percentage repellency relationship to filter paper ageing.

[3] = system: northern house mosquito, Culex pipiens; experiment: Static-air choice-test apparatus, percentage and contact repellency bioassay; conditions: 15 minutes
Protocol: A static-air choice-test apparatus as described above was used to determine the behavioral effects on the insects in this study. The apparatus consisted of a 9×60-cm section of glass tubing with a 2-cm hole drilled at the midpoint along the length for central introduction of the insects. All of the testing was conducted in an environmental chamber at 26° C.
Treatments included catnip essential oil, obtained by steam distillation as described herein and in Peterson, et al., J. Econ. Entomol., 2002, 95, 377-380. Osage orange essential oil, obtained by steam distillation of whole fruits previously described in Peterson, et al., J. Essential Oil Res., 2002, 14, 233-236, elemol (Augustus Oils, New Hampshire, England), and DEET (Aldrich, St. Louis, Mo.) test solutions at 1%, 0.5% and 0.1% concentrations (wt/vol). The test solutions' solvent, hexane, served as a control treatment in this assay.
One milliliter of the solution was applied to one half of a 9-cm diameter round filter paper with an area of 63.6 cm^2 and then allowed to dry before testing. […] Treated filter papers were placed inside the lids of 9-cm glass petri dishes, and placed over the ends of the glass tube. The position of the treated side, to the right or to the left, was selected by using a random-number table. Approximately fifteen unmated adult female mosquitoes were anaesthetized with CO2 and then introduced to the 9×60-cm glass cylinder through the centered 2-cm hole. Timing began two minutes after mosquito introduction, and mosquito distribution inside the static-air choice-test apparatus was observed over a 180-minute period for each treatment. Mosquito distribution (number of individuals on treated and untreated side) was recorded at 15, 30, 60, 90, 120, and 180-minute timepoints.
The data generated by this study was used to examine two measures of mosquito repellency, percentage repellency and contact repellency. Percentage repellency was calculated for with the following formula: Percentage Repellency=((Number of Individuals on Untreated Half-Number of Individuals on Treated Half)/15)×100.
Contact repellency was defined in this assay as 100% avoidance of the treated filter paper (no contact). 15, 30, 60, 90, 120, and 180-minute time-points were used to assess contact repellency for individual observations.
The experimental design was a completely randomized design using three replications of each treatment. Analysis of variance was performed on SAS (PROC GLM; SAS Version 8) to identify significant differences of percentage repellency due to treatment, and concentration. Multiple comparisions were completed using Tukey's procedure. Treatment pair-wise comparisons of contact repellency, which included data from the six time-points observed for each treatment, were completed using Fishers Exact (PROC FREQ; SAS Version 8).

[4] = 15.7 μg/cm^2 (0.1%), treatment aged 0 min
[5] = 15.7 μg/cm^2 (0.1%), treatment aged 30 min
[6] = 15.7 μg/cm^2 (0.1%), treatment aged 60 min
[7] = 15.7 μg/cm^2 (0.1%), treatment aged 120 min
[8] = 15.7 μg/cm^2 (0.1%), treatment aged 180 min
[9] = 78.6 μg/cm^2 (0.5%), treatment aged 0 min
[10] = 78.6 μg/cm^2 (0.5%), treatment aged 30 min
[11] = 78.6 μg/cm^2 (0.5%), treatment aged 60 min
[12] = 78.6 μg/cm^2 (0.5%), treatment aged 120 min
[13] = 78.6 μg/cm^2 (0.5%), treatment aged 180 min
[14] = concentration 0.1% (15.7 μg/cm^2)
[15] = concentration 0.5% (78.6 μg/cm^2)

Row | SMILES | long term repellency (in excess of two hours) [1] | Average Percentage Repellency Over Time ([1]; 60 min) [%] | Average Percentage Repellency Over Time ([1]; 120 min) [%] | Average Percentage Repellency Over Time ([1]; 360 min) [%] | Average Percentage Repellency Over Time ([1]; Initial) [%] | Percentage Repellency Over Time [2, 4] [%] | Percentage Repellency Over Time [2, 5] [%] | Percentage Repellency Over Time [2, 6] [%] | Percentage Repellency Over Time [2, 7] [%] | Percentage Repellency Over Time [2, 8] [%] | Percentage Repellency Over Time [2, 9] [%] | Percentage Repellency Over Time [2, 10] [%] | Percentage Repellency Over Time [2, 11] [%] | Percentage Repellency Over Time [2, 12] [%] | Percentage Repellency Over Time [2, 13] [%] | Percentage Repellency [3, 14] [%] | Percentage Repellency [3, 15] [%] | Percentage Repellency ([3]; concentration 1% (157 μg/cm^2)) [%] | further results
1 | CCN(CC)C(=O)c1cccc(C)c1 [DEET, N,N-diethyl-3-methylbenzamide, reference compound] | long term repellency | 64 | 47 | 49 | 52 | 54.9 | 23.1 | 45.7 | 39 | 70.6 | 74.0 | 37 | 59 | 77.7 | 74 | 59.3 | 62.3 | 44.4 | 
2 | C=CC1(C)CCC(C(C)(C)O)CC1C(=C)C (stereo not shown) [Elemol] | long term repellency | 52 | 43 | 35 | 56 | 35.0 | 30.8 | 49 | 20.7 | 44.8 | 84.7 | 76.5 | 96.5 | 80.8 | 76.5 | 63.0 | 81.3 | 74.1 | % repellency ([1]; 78.6 μg/cm^2 (equivalent to a 0.5% solution), determined at 15 minutes, three replications): 38.9%; Avoidance Frequency ([1]; Conc 1% (157 μg/cm^2), average of mosquito contact repellency over 3-hour time period): 97; Repellency (%) (15-minute spatial repellency) ([1]; Conc 1% (157 μg/cm^2), determined at 15 minutes, six replications): 63.6%; spatial and contact repellency over a 6-hour time period ([1]; other data from our lab, 6-hour time period): good spatial and very good contact repellents
